Measured values reported in patent publication US9061006B2, “Compositions and methods for diagnosing and treating phenylketonuria (PKU)” (Ramot at Tel-Aviv University Ltd., priority 2011, dated 2015).

Experiments:
Type in all cases: cell-based
PC12 cells = experiment: MTT cell viability assay, PC12 cell line; conditions: negative control amino acid, increasing amount
Experimental: (§1) Cell cytotoxicity experiments—CHO cells (2×10^5 cells/mL) were cultured in 96-well micro plates (100 μL/well) and incubated overnight at 37° C. 100 μL of phenylalanine was added to each well dissolved in Dulbecco's Modified Eagle Medium (DMEM) (Beit Haemek, Israel) at various concentrations. Each experiment was repeated 3 times. Following incubation for 6 hours at 37° C., cell viability was evaluated using the 3-(4,5-dimethylthiazolyl-2)-2,5-diphenyltetrazolium bromide (MTT) assay. Briefly, 20 μL of 5 mg/mL MTT dissolved in PBS was added to each well. After 4 hours incubation at 37° C., 100 μL of extraction buffer [20% SDS dissolved in a solution of 50% dimethylformamide and 50% DDW (pH 4.7)] was added to each well, and the plates were incubated again overnight at 37° C. Finally, color intensity was measured using an ELISA reader at 570 nm.
(§2) The present inventors next examined whether, like many amyloid structures, phenylalanine assemblies have a cytotoxic effect. This was examined in a physiological range of concentration, similar to that detected in untreated PKU patients. We performed in vitro cellular viability experiments. To this end, elevated concentrations of phenylalanine ranging from 0.1 μM to 15 mM were added to […] cultured PC12 cells. […] In the presence of 1.8 mM phenylalanine, PC12 cell viability was decreased to approximately 80%. […] In the presence of 6 mM phenylalanine, CHO cell viability was decreased to 84%. Moreover, the viability of the cells in the presence of phenylalanine at concentration of 12 mM was lower than 40% (FIG. 2A). The present assay is performed at much shorter time scales than those of disease progression and this may account for the slightly elevated concentrations than those typically found at PKU patients. It is also possible that such high concentrations of phenylalanine occur pathologically in PKU patients due to transient local high concentration in the brain. […] The present inventors further assessed the influence of the phenylalanine fibrils on the CHO cells using scanning electron microscope.

[1] = MTT cell viability assay, PC12 cell line; conditions: rat, PC12 cells
Experimental: as §1, §2

[2] = MTT cell viability assay, CHO cell line; conditions: Chinese hamster, CHO cells
Experimental: as §1

[3] = Immuno precipitation and cell cytotoxicity experiments (MTT); conditions: Chinese hamster, prior to IP, CHO cells
Experimental: as §1
Immuno precipitation and cell cytotoxicity experiments—Phenylalanine solution at concentration of 7.5, 1.87, 0.46, 0.11 were either incubated with CHO cell or immuno-precipitate and then the solutions, without the fibrils, were incubated with CHO cell according to cell cytotoxicity experiments detailed above. Samples were immuno-precipitated with anti-phenylalanine fibrils antibodies (1:10) over night at 4° C. (previously purified on protein A column, in PBS+2% BSA).

CHO cells = experiment: Scanning electron microscopy imaging of CHO cells; conditions: incubation with phenylalanine fibrils 6 hour, SEM
Experimental: Scanning electron microscopy imaging of CHO cells—CHO cell were cultured on glass cover slips located in 24-well micro plates, then incubated with various concentration of phenylalanine fibrils for 6 hour at 37° C., as described in the cell cytotoxicity experiments section. The cell were fixated on the glass cover slip with 2.5% glutaraldehyde, then dehydrated and coated with gold. Scanning electron microscopy images were made using a JSM JEOL 840A SEM operating at 5 kV.

| CHO cell morphology (CHO cells) | CHO cell density (CHO cells; compared to untreated cells) | SMILES | toxic effect (cytotoxicity) (PC12 cells) | viability at 1.8 mM ([1]; 1.8 mM phenylalanine) [%] | viability at 7.5 mM ([1]; 7.5 mM phenylalanine) [%] | viability at 6 h, 6 mM ([2]; 6 mM phenylalanine) [%] | viability at 6 h, 12 mM ([2]; 12 mM phenylalanine) [%] | viability at 6 h, 1.87 mM ([3]; 1.87 mM phenylalanine assemblies) [%] | viability at 6 h, 7.5 mM ([3]; 7.5 mM phenylalanine assemblies) [%] |
| --- | --- | --- | --- | --- | --- | --- | --- | --- | --- |
|  |  | C[C@H](N)C(=O)O [Alanine, reference compound] | did not demonstrate a toxic effect |  |  |  |  |  |  |
| smaller and rounded | very low density | N[C@@H](Cc1ccccc1)C(=O)O [phenylalanine] |  | ~80 | ~65 | 84 | < 40 | 56 | 44 |
